Measurements from US9475789B2, “Use of polyenylpyrrole derivatives for treating inflammation” (WELLHEAD BIOLOGICAL TECHNOLOGY CORP., priority 2014, dated 2016).
Entries after “also recorded” stand apart in the source; their conditions may differ.

Key:
[1] = test system: IL-6; test: IL-6 ELISA, LPS-activated J774A.1 macrophages; type: cell-based, murine; details: J774A.1 cells, LPS 1 μg/ml 24 h
Experimental: (A) J774A.1 macrophages (4×10^5/ml), (B) peritoneal macrophages (4×10^5/ml), and (C) JAWSII dendritic cells (4×10^5/ml) were incubated with compound 1h or DMSO for 30 min followed by stimulating with LPS (1 μg/ml) for 24 h, then IL-6 and TNF-α concentration in culture medium were assayed by ELISA. The data are expressed as the mean±SD for three separate experiments. *, **, and *** indicate a significant difference at the level of p<0.05, p<0.01, p<0.001 respectively compared to LPS group.
(§1) The effects of tested samples on IL-1β, TNF-α and IL-6 production were measured by ELISA according to the manufacturer's instruction. In brief, 50 μl of biotinylated antibody reagent and 50 μl of supernatant were added to an anti-mouse IL-1β, TNF-α and IL-6 precoated stripwell plate, and incubated at room temperature for 2 h. After washing the plate three times with washing buffer, 100 μl of diluted streptavidin-HRP concentrate was added to each well and incubated at room temperature for 30 min. The washing process was repeated; then 100 μl of a premixed tetramethylbenzidine substrate solution was added to each well and developed at room temperature in the dark for 30 min. Following the addition of 100 μl of stop solution to each well to stop the reaction, the absorbance of the plate was measured by a microplate reader at 450 nm wavelength.

[2] = test system: NLRP3; test: Western blot of NLRP3, LPS-activated J774A.1 macrophages; type: cell-based, mouse; details: compound 30 min, then LPS 6 h
Experimental: (A) J774A.1 macrophages (1×10^6/ml) and (B) peritoneal macrophages (1×10^5/ml) were incubated with compound 1h for 30 min followed by LPS (1 μg/ml) stimulating for 5.5 h, then the cells were stimulated with ATP (5 mM) for an additional 30 min. The IL-1β in the culture medium was measured by ELISA and the expression of active caspase-1 (p10) was measured by Western blot. In (C) and (D), J774A.1 macrophages (1×10^6/ml) were incubated with LPS (1 μg/ml) for 5.5 h, then cells were incubated with compound 1h for 30 min followed by stimulating with ATP (5 mM) for an additional 30 min. The IL-1β and IL-6 in the culture medium were measured by ELISA and the expression of active caspase-1 (p10) was measured by Western blot. In (E), J774A.1 macrophages (1×10^6/ml) were incubated with compound 1h for 30 min followed by LPS (1 μg/ml) stimulating for 6 h. The expression of NLRP3 and proIL-1β were measured by Western blot.
Whole cell lysates were separated by SDS-PAGE and electrotransferred to a PVDF membrane. The membranes were incubated in blocking solution—5% nonfat milk in phosphate buffered saline with 0.1% Tween 20—at room temperature for 1 h. Each membrane was incubated with a specific primary antibody at room temperature for 2 h. After washing three times in PBS with 0.1% Tween 20, the membrane was incubated with an HRP-conjugated secondary antibody directed against the primary antibody. […]

[3] = test system: IL-6; test: IL-6 ELISA, RAW 264.7 macrophages; type: cell-based, murine
Experimental: as §1

[4] = test system: RAW 264.7 cells; test: AlamarBlue assay for cell viability; type: cell-based, murine; details: Mus musculus, RAW264.7, cytotoxicity against RAW 264.7 cells, 24 h treatment
Experimental: RAW 264.7 cells were seeded at a density of 5000 cells in 100 μl RPMI 1640 medium with 10% heat-inactivated FBS per well in 96-well flat-bottom plates and incubated for 24 h at 37° C. in a 5% CO2 incubator. Cells were incubated with tested samples for 24 h and the AlamarBlue® assay was used to determine the cytotoxicity of the test samples. The procedure was conducted following the protocol described in the manufacture's instruction (AbD Serotec Ltd).
The aim of this study is to identify non-toxic polyenylpyrrole derivatives which can be used as anti-inflammatory agents. Compounds 1a-n were evaluated for their cytotoxicities against the murine macrophages cell line RAW 264.7 after 24 h treatment.

[5] = test system: ERK1/2, JNK1/2, p38; test: Western blot of MAPK phosphorylation, LPS-activated RAW 264.7 macrophages; type: cell-based, murine; details: compound 1h 20 μM
Experimental: In (A), RAW 264.7 macrophages (5×10^5/ml) were incubated with compound 1h (20 μM), N-acetyl cysteine (NAC; 10 mM) or DMSO (vehicle) for 30 min followed by LPS (1 μg/ml) stimulating for the indicated time, then ROS levels were measured by detection of the fluorescence intensity of the fluorophore carboxyl-DCF and expressed relative to those at time zero. In (B), RAW 264.7 macrophages (5×10^5/ml) were incubated with compound 1h (20 μM) or DMSO for 30 min followed by LPS (1 μg/ml) stimulating for 0-60 min, then the phosphorylation levels of ERK1/2, JNK1/2, p38 were analyzed by Western blot. In (C), J774A.1 macrophages (5×10^5/ml) were incubated with compound 1h or DMSO for 30 min followed by LPS (1 μg/ml) stimulating for 20 min, then the phosphorylation levels of ERK1/2, JNK1/2, p38 were analyzed by Western blot.
(§2) Whole cell lysates were separated by SDS-PAGE and electrotransferred to a PVDF membrane. The membranes were incubated in blocking solution—5% nonfat milk in phosphate buffered saline with 0.1% Tween 20—at room temperature for 1 h. Each membrane was incubated with a specific primary antibody at room temperature for 2 h. After washing three times in PBS with 0.1% Tween 20, the membrane was incubated with an HRP-conjugated secondary antibody directed against the primary antibody. The membrane was developed by an enhanced chemiluminescence Western blot detection system.

[6] = test system: COX-2; test: Western blot of COX-2 protein in LPS-activated RAW 264.7 macrophages; type: cell-based, murine
Experimental: In (A) and (C), cells (5×10^5/ml) were incubated with polyenylpyrrole derivatives or DMSO (vehicle) for 30 min followed by stimulating with LPS (1 μg/ml) for 24 h, then NO (A), IL-6 and TNF-α (C) concentration in culture medium were assayed by Griess reaction and ELISA, respectively. In (B), cells (5×10^5/ml) were pretreated with polyenylpyrrole derivatives or DMSO for 30 min followed by stimulating with LPS (1 μg/ml) for 24 h, then the protein expression of iNOS and COX-2 were assayed by Western blot.
as §2

O=c1cc(O)cc(/C=C/C=C/C=C/C=C/c2[nH]ccc2Cl)o1 [Compound 1h]
secretion of IL-6 [1]: reduced | NLRP3 expression [2]: increased NLRP3 expression | relative potency in decreasing IL-6 secretion ([3]; LPS-activated RAW 264.7): more potent than 1i and 1n | secretion of IL-6 ([3]; LPS-activated RAW 264.7, LPS 1 μg/ml 24 h): decreased production; also recorded: decreased the secretion of IL-6 by LPS-activated RAW 264.7 macrophages in a dose-dependent manner | background level of IL-6 ([3]; compound alone, no LPS, data not shown): did not alter | IC50 [4]: > 100 µM | phosphorylation level of ERK1/2 [5]: inhibited | phosphorylation level of JNK1/2 [5]: inhibited | phosphorylation level of p38 [5]: inhibited | COX-2 expression [6]: did not affect
